Data as given in PubChem BioAssay (NCI).
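In this assay, cells in 96-well plates receive the compound at five concentrations for 48 hours. Endpoints are linearly interpolated between the surrounding concentrations. GI50 is the concentration that inhibits growth by half. The concentration for full growth arrest is given as TGI.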

Tests used:
Experiment in all cases: NCI-60 cell line screen, 48 h
[1] = system: UO-31 renal
[2] = system: SNB-75 CNS
[3] = system: KM12 colon
[4] = system: MOLT-4 leukemia
[5] = system: SK-OV-3 ovarian
[6] = system: UACC-257 melanoma
[7] = system: COLO 205 colon
[8] = system: MALME-3M melanoma
[9] = system: K-562 leukemia
[10] = system: SK-MEL-28 melanoma

SMILES	TGI [1] [µM]	TGI [2] [µM]	TGI [3] [µM]	TGI [4] [µM]	TGI [5] [µM]	TGI [6] [µM]	TGI [7] [µM]	TGI [8] [µM]	TGI [9] [µM]	TGI [10] [µM]	GI50 [1] [µM]	GI50 [2] [µM]	GI50 [10] [µM]	GI50 [3] [µM]	GI50 [4] [µM]	GI50 [6] [µM]	GI50 [7] [µM]	GI50 [9] [µM]	GI50 [8] [µM]
O=C1c2ccccc2-c2nnc3c(c21)-c1ccccc1C3	> 100	> 100	> 100	80.8	> 100	> 100	> 100	> 100	–	–	–	–	–	–	–	–	–	–	–
COC1CC(COCc2ccccc2)CC(OC)O1 (stereo unspecified)	> 100	> 100	> 100	> 100	> 100	> 100	> 100	–	> 100	–	–	–	–	–	–	–	–	–	–
CC[C@@]1(C)CCC2c3ccc(O)cc3CC[C@H]2C1C (stereo partly specified)	30.4	37.2	36.7	32.5	–	29.3	35.1	30.5	23.3	32	–	–	–	–	–	–	–	–	–
CC(=O)NC1(c2cc3ccccc3s2)CCCCCC1	> 100	92.2	> 100	44.4	> 100	> 100	50	–	97.3	> 100	–	–	–	–	–	–	–	–	–
COc1ccc(C2SCC(=O)N2NC(=O)c2ccc(NC(C)=O)cc2)c(OC)c1 (stereo unspecified)	> 100	> 100	> 100	> 100	> 100	> 100	> 100	–	> 100	> 100	–	–	–	–	–	–	–	–	–
N#Cc1c(-c2ccc(Cl)cc2)[nH]c(=O)n(C2OC(CO)C(O)C(O)C2O)c1=O (stereo unspecified)	> 100	> 100	> 100	> 100	> 100	> 100	> 100	–	> 100	> 100	–	–	–	–	–	–	–	–	–
CC(=O)O[C@H]1CC[C@@]2(C)C(=CC[C@@H]3[C@@H]2CC[C@]2(C)c4c(C)nn(-c5ccccc5)c4C[C@@H]32)C1	47.3	49.9	86.7	> 100	44.5	> 100	36.2	–	> 100	> 100	–	–	–	–	–	–	–	–	–
CC1=C(O)C(=O)C2C(=O)C1C1Cc3ccccc3C21 (stereo unspecified)	> 100	> 100	> 100	> 100	> 100	–	> 100	> 100	> 100	> 100	–	–	–	–	–	–	–	–	–
CC(=O)Nc1ccc2c3c(cc(O)c2c1)N(C(=O)CCCCCCC(=O)N1CC(CCl)c2c1cc(O)c1cc(NC(C)=O)ccc21)CC3CCl (stereo unspecified)	–	< 0.01	12.7	–	12.4	–	0.0161	0.0233	> 100	> 100	–	–	–	–	–	–	–	–	–
O=C(Nc1ccc2[nH]c(C(=O)N3CC(CCl)c4c3cc([N+](=O)[O-])c3ccccc43)cc2c1)Nc1ccc2[nH]c(C(=O)N3CC(CCl)c4c3cc([N+](=O)[O-])c3ccccc43)cc2c1 (stereo unspecified)	41.1	> 100	> 100	–	> 100	> 100	> 100	> 100	–	> 100	–	–	–	–	–	–	–	–	–
OC(c1ccc(C(F)(F)F)cc1)C(F)(F)c1nc2ccccc2o1 (stereo unspecified)	> 100	> 100	> 100	> 100	> 100	> 100	> 100	–	> 100	> 100	–	–	–	–	–	–	–	–	–
CC(C)C(=O)Nc1cc(C(F)(F)F)ccc1[N+](=O)[O-]	> 100	–	> 100	> 100	> 100	> 100	> 100	> 100	> 100	> 100	–	–	–	–	–	–	–	–	–
Nc1nc2ncc(CNc3ccc(C(=O)NC(CCC(=O)O)C(=O)O)cc3)nc2c(=O)[nH]1 (stereo unspecified)	> 100	> 100	> 100	> 100	–	> 100	–	> 100	> 100	> 100	–	–	–	–	–	–	–	–	–
CCC(=O)Nc1ccc(NC(C#N)c2cccc(Oc3ccccc3)c2)cc1 (stereo unspecified)	> 100	> 100	> 100	36	> 100	–	> 100	94.2	> 100	> 100	–	–	–	–	–	–	–	–	–
O=[N+]([O-])C(=C(N1CCOCC1)N1CCOCC1)/C(Cl)=C(\Cl)Br	43.4	33.2	76.3	33.9	–	31.8	29.6	30.5	60.2	33.8	–	–	–	–	–	–	–	–	–
[N-]=[N+]=NC(c1cn(C2CC(O)C(CO)O2)c(=O)[nH]c1=O)C(Cl)I (stereo unspecified)	> 100	> 100	> 100	> 100	> 100	> 100	> 100	–	–	> 100	–	–	–	–	–	–	–	–	–
O=c1[nH]nc(Cc2c[nH]c3ccccc23)o1	> 100	–	> 100	> 100	–	> 100	> 100	> 100	> 100	> 100	–	–	–	–	–	–	–	–	–

SMILES	TGI [1] [µM]	TGI [2] [µM]	TGI [3] [µM]	TGI [4] [µM]	TGI [5] [µM]	TGI [6] [µM]	TGI [7] [µM]	TGI [8] [µM]	TGI [9] [µM]	TGI [10] [µM]	GI50 [1] [µM]	GI50 [2] [µM]	GI50 [10] [µM]	GI50 [3] [µM]	GI50 [4] [µM]	GI50 [6] [µM]	GI50 [7] [µM]	GI50 [9] [µM]	GI50 [8] [µM]
N#Cc1c(N2CCC(O)C2)c2ccccc2n2c1nc1ccccc12 (stereo unspecified)	> 100	62.9	> 100	> 100	–	> 100	> 100	> 100	–	> 100	–	–	–	–	–	–	–	–	–
CCOC(=O)C1=CCOc2cc(N(C)C)ccc21	> 100	> 100	> 100	–	> 100	> 100	> 100	> 100	> 100	> 100	–	–	–	–	–	–	–	–	–
CN1C(=O)C2(C=CC(O)CC2)c2ccccc21 (stereo unspecified)	> 100	> 100	> 100	> 100	> 100	> 100	> 100	–	> 100	> 100	–	–	–	–	–	–	–	–	–
COc1ccc(CCCNC(=O)c2cc(OC)c(OC)cc2CCO)cc1OC	> 100	> 100	> 100	> 100	> 100	> 100	> 100	–	> 100	> 100	–	–	–	–	–	–	–	–	–
Cn1c(=O)c2c(nc3n2CCCC(=O)N3CC(O)CCl)n(C)c1=O (stereo unspecified)	> 100	> 100	> 100	> 100	> 100	> 100	> 100	–	> 100	> 100	–	–	–	–	–	–	–	–	–
O=C(Nc1ccc(-n2ccc3c(NC(=O)c4ccccc4)ncnc32)cc1)Nc1ccc(Cl)c(Cl)c1	14.8	5.27	6.67	12.9	–	10.8	9.89	12	6.75	9.43	7.16	1.03	2.92	1.8	2.75	3.57	2.6	1.73	3.39
CCOC(=O)c1cc2/c(=C\c3ccc(N(C)C)cc3)c3ccccc3n2[n+]1C	19.3	–	1.4	> 23.4	16.3	11.8	1.42	–	> 58	14	–	–	–	–	–	–	–	–	–
C/C(CC(O)(/C=N/O)c1ccccc1)=N/O (stereo unspecified)	> 100	–	> 100	> 100	> 100	> 100	–	> 100	> 100	> 100	–	–	–	–	–	–	–	–	–
COc1ccccc1-c1cc(=O)c2cc3c(cc2[nH]1)OCO3	> 100	> 100	–	> 100	–	> 100	51.5	> 100	> 100	> 100	–	–	–	–	–	–	–	–	–
Cc1cc(Cc2cc(C)c(NC(=O)C(=O)C3CCC4=C(SC5C=CC=CC5N4)C3=O)c(C(C)C)c2)cc(C(C)C)c1NC(=O)C(=O)C1CCC2=C(SC3C=CC=CC3N2)C1=O (stereo unspecified)	> 100	> 100	> 100	> 100	> 100	> 100	> 100	–	> 100	> 100	–	–	–	–	–	–	–	–	–
O=c1c2cc3c(=O)n4c(cc(-c5ccccc5)c5cc(Cl)ccc54)nc3cc2nc2cc(-c3ccccc3)c3cc(Cl)ccc3n12	> 100	> 100	> 100	> 100	> 100	> 100	> 100	–	> 100	> 100	–	–	–	–	–	–	–	–	–
O=C(CN1CCOCC1)c1ccc2c(c1)oc(=O)n2CCN1CCOCC1	–	> 100	> 100	> 100	> 100	–	> 100	> 100	> 100	> 100	–	–	–	–	–	–	–	–	–
COc1cc(-c2cc(=O)c3c(O)c(CC=C(C)C)c(O)cc3o2)ccc1O	> 50	–	–	> 50	> 50	> 50	> 50	> 50	> 50	26.7	–	–	–	–	–	–	–	–	–
NC(=O)Cc1nc2c(N)ncnc2n1C1OC(CO)C(O)C1O (stereo unspecified)	> 100	–	> 100	> 100	> 100	> 100	> 100	> 100	> 100	> 100	–	–	–	–	–	–	–	–	–
CCCCCCCCCCCCCCCCCCNC(=S)/N=C\C1=C(O)c2ccccc2C1=O	23.3	–	22.7	16.5	33.6	33.6	29.1	28.1	–	30.7	–	–	–	–	–	–	–	–	–
COC(=O)C1(C#N)C(C)(C)N=C(c2ccccc2)C12CCCCC2 (stereo unspecified)	> 100	–	> 100	> 100	> 100	> 100	> 100	> 100	> 100	> 100	–	–	–	–	–	–	–	–	–
